These results are taken from patent publication US9394268B2, “(E)-1-(5-methoxy-2,2-dimethyl-2H-chromen-8-yl)-3-(4-methoxyphenyl)prop-2-en-1-one and analogs thereof, as well as preparation method and use thereof” (Sichuan University, priority 2012, dated 2016).

Data set [1] has as its system HepG2. As to the kind of experiment: Cell proliferative assay (MTT), HepG2. The class given is cell-based. The following applies: Homo sapiens, 72 h incubation, read-out: IC50s HepG2. The gist of the method: (§1)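 Cells were seeded and allowed 24 h before exposure to test compounds at various doses for 72 h. Viability was read by MTT absorbance at 590 nm, and IC50 values were taken from dose-response curves as mean±SEM of at least three independent experiments.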

In data set [2] the test system is SW620. As to the kind of experiment: Cell proliferative assay (MTT), SW620. The class given is cell-based. Particulars: Homo sapiens, SW-620, 72 h incubation, read-out: IC50s SW620. The gist of the method:
as §1

In data set [3] the test system is HT29. As to the kind of experiment: Cell proliferative assay (MTT), HT29. The class given is cell-based. Particulars: Homo sapiens, HT-29, 72 h incubation, read-out: IC50s HT29. Put shortly:
as §1

The subject of data set [4] is K562. As to the kind of experiment: Cell proliferative assay (MTT), K562. The following applies: Homo sapiens, 72 h incubation, read-out: IC50s K562. The data set is classed as cell-based. Put shortly:
as §1

The test system of data set [5] is HCT116. As to the kind of experiment: Cell proliferative assay (MTT), HCT116. The class given is cell-based. Particulars: Homo sapiens, HCT-116, 72 h incubation, read-out: IC50s HCT116. The gist of the method:
as §1

The subject of data set [6] is B16F10 cells. Kind of data set: Malignant melanoma B16 tumor xenograft study. The class given is in vivo, C57 mice. Particulars: 5, 10 and 15 mg/kg intravenous once every other day for seven times; vs control P<0.01. On the procedure:
In Vivo Antitumor Activity (1) In Malignant Melanoma B16 Tumor Xenograft Study of Millepachine
Six-week-old female mice were obtained from Chinese Academy of Medical Science (Beijing, China). B16F10 cells (5×10^5 in 100 μl saline) were injected subcutaneously into the right flanks of C57 mice. When the tumor reached about 100 mm^3, mice were selected and randomly divided into four groups including control and three compounds-treated groups. The animals were intravenous injection with Millepachine (5, 10 and 15 mg/kg) or vehicle once every other day for seven times. Tumor burden was measured every 2 or 3 days with a caliper (calculated volume [mm^3]=π/6×length×width×width). After treatment, mice were killed tumors were collected and weighted.

Data set [7] has as its system B16F10 cells. Kind of data set: Malignant melanoma B16-induced lung metastasis. Particulars: 7.5 and 15 mg/kg intravenous once every other day for seven times. The data set is classed as in vivo, C57 mice. Here is the method:
(2) The Effect of Millepachine on the Malignant Melanoma B16-Induced Lung Metastasis
Six-week-old female mice were obtained from Chinese Academy of Medical Science (Beijing, China). B16F10 cells (5×10^5 in 100 μl saline) were injected intravenous into the caudal vein of C57 mice. The animals were intravenous injection with Millepachine (7.5 and 15 mg/kg) or vehicle once every other day for seven times after incubation of cell. After stop treatment for 20 days, mice were killed and lung metastasis was observed.

For data set [8], the system named is tumor cells. Kind of data set: Cell proliferative assay (MTT), summary over tumor cells. The data set is classed as cell-based. Particulars: summary in words of Table 1, colon, liver, leukemia lines. Here is the method:
The synthesized compounds were evaluated for their cytotoxin activity against suspended tumor cells. These cells were seeded on 96-well plates and incubated for 24 h. Selected compounds were added at various doses and incubated for 72 h, MTT was then added, and the absorbance was measured at a wavelength of 590 nm. IC50 values are expressed as the mean±SEM from the dose-response curves of at least three independent experiments.

Data set [9] has as its system several cancer cell lines. The following applies: background statement; cited from earlier work.
In data set [10] the test system is HeLa-C3 cells. Particulars: background statement; cited from earlier work.
Data set [11] deals with A549. As to the kind of experiment: Cell proliferative assay (MTT), A549. The data set is classed as cell-based. Particulars: Homo sapiens, 72 h incubation, read-out: IC50s A549. The gist of the method: as §1
The test system of data set [12] is A375. As to the kind of experiment: Cell proliferative assay (MTT), A375. Particulars: Homo sapiens, A-375, 72 h incubation, read-out: IC50s A375. The data set is classed as cell-based. Put shortly:
as §1

Data set [13] concerns SMMC-7221. Kind of data set: Cell proliferative assay (MTT), SMMC-7221. The class given is cell-based. Particulars: 72 h incubation, read-out: IC50s SMMC-7221. Put shortly: as §1
The test system of data set [14] is LO2. Kind of data set: Cell proliferative assay (MTT), LO2. The data set is classed as cell-based. Particulars: Homo sapiens, L02, 72 h incubation, read-out: IC50s LO2. The gist of the method:
as §1

In data set [15] the test system is HepG2 cells. As to the kind of experiment: Human hepatocarcinoma HepG2 xenograft (SKLBC-45 study). The class given is in vivo, Balb/c nude mice. The following applies: 2.5, 5, 10, 20 mg/kg intravenous every three days for eight times; vs vehicle control. On the procedure: (5) In Vivo Anti-Tumor Activity of SKLBC-45 on Human Hepatocarcinoma HepG2 Xenograft
Six-week-old Balb/c nude mice were obtained from Chinese Academy of Medical Science (Beijing, China). HepG2 cells (10^7 in 100 μl saline) were injected subcutaneously into the right flanks of the mice. 14 days after cell injection, seventy mice were selected and randomly divided into seven groups including saline control, vehicle control, four doses of SKLBC-45 (2.5, 5, 10, 20 mg/kg) and positive control Adriamycin (5 mg/kg). The animals were intravenously injected with saline, SKLBC-45, adriamycin or vehicle every three days for eight times. Tumor burden and animal body weight was measured every 2 or 3 days. The survival rate was also recorded. After treatment, mice were killed and tumors were collected and weighted.

For data set [16], the system named is HepG2 cells. Kind of data set: Human hepatocarcinoma HepG2 xenograft (SKLBC-76 study). The data set is classed as in vivo, Balb/c nude mice. Particulars: 2.5, 5, 10 mg/kg intravenous every three days for eight times; vs control. Here is the method:
(6) In Vivo Anti-Tumor Activity of SKLBC-76 on Human Hepatocarcinoma HepG2 Xenograft
Six-week-old Balb/c nude mice were obtained from Chinese Academy of Medical Science (Beijing, China). HepG2 cells (10^7 in 100 μl saline) were injected subcutaneously into the right flanks of the mice. 14 days after cell injection, fifty mice were selected and randomly divided into five groups including control, three doses of SKLBC-76 (2.5, 5, 10 mg/kg) and positive control taxol (5 mg/kg). The animals were intravenously injected with SKLBC-76 or taxol every three days for eight times. Tumor burden and animal body weight was measured every 2 or 3 days. The survival rate was also recorded. After treatment, mice were killed and tumors were collected and weighted.
On the technique in general: Xenograft models place foreign cells or tissue in a host animal.

For data set [17], the system named is C26 cells. Kind of data set: C26-tumor bearing mice model (SKLBC-83 study). The class given is in vivo, Balb/c mice. Particulars: 10 mg/kg intravenous every two days for eight times; vs control. Here is the method:
(7) In Vivo Anti-Tumor Activity of SKLBC-83 on C26-Tumor Bearing Mice Model.
Six-week-old Balb/c mice were obtained from Chinese Academy of Medical Science (Beijing, China). C26 cells (3×10^6 in 100 μl saline) were injected subcutaneously into the right flanks of the mice. 10 days after cell injection, thirty mice were selected and randomly divided into three groups including saline control, SKLBC-83 (10 mg/kg) and positive control taxol (5 mg/kg). The animals were intravenously injected with […] or taxol every two days for eight times. Tumor burden and animal body weight was measured every 2 or 3 days. The survival rate was also recorded. After treatment, mice were killed and tumors were collected and weighted.

Data set [18] concerns C26 cells. As to the kind of experiment: C26-tumor bearing mice model (seven-compound study). The class given is in vivo, Balb/c mice. The following applies: 10 mg/kg intravenous every two days for eight times; vs control. Here is the method:
(8) In Vivo Anti-Tumor Activity of SKLBC-45, SKLBC-68, SKLBC-74, SKLBC-75, SKLBC-76, SKLBC-79, SKLBC-80 on C26-Tumor Bearing Mice Model.
Six-week-old Balb/c mice were obtained from Chinese Academy of Medical Science (Beijing, China). C26 cells (3×10^6 in 100 μl saline) were injected subcutaneously into the right flanks of the mice. 10 days after cell injection, when the average tumor volume reached ˜60 mm^3. Fifty-four mice were selected and randomly divided into nine groups including saline control, seven compounds and positive control taxol (5 mg/kg). The treatment started one day later. The animals were intravenously injected with SKLBC-45, SKLBC-68, SKLBC-74, SKLBC-75, SKLBC-76, SKLBC-79, SKLBC-80 (all 10 mg/kg) or taxol every two days for eight times. Tumor burden and animal body weight was measured every 2 or 3 days. The survival rate was also recorded. After treatment, mice were killed and tumors were collected and weighted. The results were shown in FIGS. 15, 16, 17, 18, 19, 20 and 21.

“Also recorded” adds a separate entry of the source.

Regarding `COc1ccc(/C=C/C(=O)c2ccc(OC)c3c2OC(C)(C)C=C3)cc1` [Millepachine, (E)-1-(5-methoxy-2,2-dimethyl-2H-chromen-8-yl)-3-(4-methoxyphenyl)prop-2-en-1-one], the IC50 in data set [1] is 2610 nM; in data set [2], 760 nM; in data set [3], 3290 nM; in data set [4], 4560 nM; in data set [5], 4660 nM. In [6], the “survivor time of tumor-bearing mice” value is on record as “prolong the survivor time”. Moreover, the tumor growth entry in data set [6] is listed as “suppress tumor growth”. Moreover, the lung metastasis entry in [7] was “dose-dependently inhibited; also recorded: significantly inhibited”. Also, the results for the “inhibitory activity against tumor cells” value in data set [8] and in data set [8] (listed as SKLBC-1) were “better inhibitory activity” and “best inhibitory activity”, respectively. Also, the “cytotoxic effects against cancer cells” value in data set [9] was “significant cytotoxic and apoptotic effects”. Besides, in data set [10], the “apoptotic effects against cancer cells” value was “significant cytotoxic and apoptotic effects”.
As to `COc1ccc(C(=O)/C=C/c2ccccn2)c2c1C=CC(C)(C)O2` [SKLBC-33, (E)-1-(5-methoxy-2,2-dimethyl-2H-chromen-8-yl)-3-(pyridin-2-yl)prop-2-en-1-one], the IC50 in data set [1] is 5760 nM; in data set [2], 5000 nM; in data set [3], 2120 nM; in [4], 5400 nM; in data set [5], > 10000 nM. Besides, the “inhibitory activity against tumor cells” value in data set [8] is on record as “better inhibitory activity”.
Take `CCC(=O)Oc1ccc(C(=O)/C=C/c2ccc(N(CC)CC)cc2)c2c1C=CC(C)(C)O2` [SKLBC-45, (E)-8-(3-(4-(diethylamino)phenyl)acryloyl)-2,2-dimethyl-2H-chromen-5-yl propionate]: the IC50 was 148 nM in [1]; 522 nM in data set [4]; 360 nM in data set [11]; 620 nM in [12]; 610 nM in data set [13]; 20000 nM in [14]. Moreover, the average tumor weight entry in [15] was “significantly lower”. Moreover, the growth of tumor result in data set [15] is listed as “significantly inhibited”. Moreover, in [8], the “inhibitory activity against tumor cells” value is recorded as “better inhibitory activity; also recorded: best inhibitory activity”.
Regarding `CCC(=O)Oc1cc(/C=C/C(=O)c2ccc(OC)c3c2OC(C)(C)C=C3)ccc1OC` [SKLBC-76, (E)-2-methoxy-5-(3-(5-methoxy-2,2-dimethyl-2H-chromen-8-yl)-3-oxoprop-1-en-1-yl)phenyl propionate], the IC50 in data set [1] is 103 nM; in data set [4] it was 164 nM; in data set [11], 475 nM; in data set [12], 443 nM; in data set [13], 2150 nM; in data set [14], > 10000 nM. In data set [16], the average tumor weight entry is recorded as “significantly lower”. Also, in data set [16], the growth of tumor result was “significantly inhibited”.
As to `COc1ccc(/C=C/C(=O)c2ccc(OC)c3c2OC(C)(C)C=C3)cc1N` [SKLBC-83, (E)-3-(3-amino-4-methoxyphenyl)-1-(5-methoxy-2,2-dimethyl-2H-chromen-8-yl)prop-2-en-1-one], the IC50 in data set [1] turned out to be 42 nM; in data set [4], 246 nM; in data set [11], 285 nM; in data set [12] it was 111 nM; in data set [13], 278 nM; in data set [14], 8500 nM. Besides, the average tumor weight entry in data set [17] and in [18] was “significantly lower” each time. In addition, the growth of tumor result in data set [17] and in data set [18] was “significantly inhibited” in each case.
